Laboratory results published in patent publication US9604932B2 (priority 2013, dated 2017).

Tests used:
[1] = test system: erectile dysfunction (ED); experiment: Rat model of erectile dysfunction; assay type: in vivo, Sprague-Dawley rats; conditions: protocol only; 80 mg/kg/day BID IV
[2] = test system: contrast-induced nephropathy (CIN); experiment: Rat model of contrast-induced nephropathy; assay type: in vivo, Sprague-Dawley rats; conditions: protocol only; 10, 20, 40 mg/kg/day BID IV
Method: In order to test the efficacy of R-107 in contrast-induced nephropathy (CIN), a single-blinded study of CIN is carried out in Sprague-Dawley rats (n=10 per group) subjected to dehydration, prostaglandin synthetase inhibition, and an IV challenge of contrast media (CM). A sham injury group is compared to treatment of CM-challenged healthy rats with R-107 (10, 20, 40 mg/kg/day in 5% dextrose, BID IV), N-acetylcysteine (NAC, 100 mg/kg/day in 5% dextrose, BID), or vehicle control (hydroxypropyl cyclodextrin, HPCD) initiated 10 min before CM administration and continued for 48 hours. Rats are evaluated at 48 hours for renal function (blood urea nitrogen to creatinine ratio, BUN:creatinine) and parameters reflecting renal injury, including protein release into the blood (NGAL; kidney injury molecule-1, KIM-1), pro-inflammatory transcription factor expression (cytoplasmic IkBa degradation, nuclear p65 translocation), histologic damage (H&E), mitochondrial swelling (electron microscopy), and nuclear damage and DNA repair (PARP activation and nitrosative stress as noted by poly(ADP-ribose) and 3-nitrotyrosine (3-NT) tissue immunoreactivity). […]

Density of R-107 = assay type: physicochemical; design: unit not given here; conditions: oil
[3] = test system: acute retinal ischemia-reperfusion injury; experiment: Porcine model of acute retinal ischemia-reperfusion injury; assay type: in vivo; conditions: protocol only; 10, 30, 80 mg/kg/day IV BID
Method: In this study, a porcine model of acute retinal ischemia-reperfusion injury (n=6 per group) is induced by equilibration with an elevated saline reservoir to create a static IOP of 90 mmHg for 90 min. Task #1: Microvascular responsiveness: A dose-response of parenteral R-107 (0, 10, 30, 80 mg/kg/day IV BID) is initiated 10 minutes before reperfusion. 1 hour after reperfusion, retinal microvessels are harvested and cannulated for ex vivo analysis of vascular responsiveness to endothelium dependent and independent vasodilators. Task #2: Retinal function and morphology: R-107 is given 10 minutes before reperfusion (at a dose determined by Task #1) and its efficacy judged by electroretinogram (1, 2, 7 days post-reperfusion) and retinal histology, ultrastructure, and drug concentration (Day 7).

[4] = Plasma pharmacokinetics in sheep (release of R-100 from R-107), LCMS; assay type: in vivo
Method: In the following two experiments, the pharmacokinetic of releasing R-100 from R-107, via R-105 that is the reduced form of R-100, was studied in vivo according to the protocol described herein.
100 μl aliquots plasma obtained from R-107-treated sheep or pig were thawed and 200 μl ice-cold ethanol was added to each 100 μl sample to precipitate protein. Samples were then vortexed, placed on ice for 10 minutes, and then spun down at room temperature for 15 minutes. A first 100 μl supernatant from each spun sample was withdrawn and placed in a labeled HPLC micro vial to which 300 μl MPA (LC mobile phase A) was added, and the vial contents were then mixed and submitted for LCMS analysis (kept at 4° C.). The concentration of R-107 was measured in this sample as was the concentration of R105. A second 100 μl supernatant from each spun sample was added to a labelled HPLC micro vial to which 300 μl MPA and 2 μl of Reducing solution (ascorbic acid, 1.0 mg/ml in water) were added. These vials were vortexed; incubated at 50° C. for 1 hour with gentle shaking; and were then cooled to 4° C. and submitted for LCMS analysis. This sample was analyzed for R105, i.e., reduced form of R-100, and the amount measured thus represents the sum of R-100 and R-105 originally present in the plasma. The concentration of R-100 can be calculated from that of the R-105 in the second sample minus that of R-105 in the first sample. However, the concentrations of R-105 were seen to be low (approximately 10% or less of those of R-100) and so the results reported below as R-100 are not corrected for R-105.
Sets of standards (R-100, R-105 and R-107) were prepared by spiking individually in pig plasma. 100 μl aliquots of these spiked plasma samples, after thawing, were included in the above extraction protocol.
Analysis method were carried out with an Agilent HPLC stack, with column eluate directed, via a diverter valve, into the source of an AB Sciex ‘Qstar Elite’ Hybrid TOF, high-resolution mass spectrometer. LC column: Phenomenex Kinetex C18 2.6u 100A, 2.1×50 mm. LC mobile phase A: H2O with 0.02% trifluoroacetic acid (TFA), 0.1% formic acid (HOF); Phase B: acetonitrile (ACN) with 0.02% TFA, 0.1% HOF. Mobile phase flow rate=500 μl/min. Injection size: 8 μl, via Agilent 1100 u-WPS autosampler. […]

[5] = Incubation of R-107 in mouse plasma, relative concentrations by HPLC; assay type: in vitro ADME; conditions: R-107 4 mM in mouse plasma, 37° C.
Method: In an in vitro study, 2,2,5,5-tetramethyl-3-(nitrooxymethyl)pyrrolidin-1-yl acetate (R-107) was incubated in mouse or rat plasma at 37° C. at a concentration of 4 mM, and the relative concentrations of this compound as well as of its corresponding hydroxylamine, (1-hydroxy-2,2,5,5-tetramethylpyrrolidin-3-yl) methyl nitrate (R-105), and 3-nitratomethyl-2,2,5,5-tetramethylpyrrolidinyloxy (R-100), were measured by HPLC.

For `CC(=O)ON1C(C)(C)CC(CO[N+](=O)[O-])C1(C)C` (stereo not drawn) [R-107, 2,2,5,5-tetramethyl-3-(nitrooxymethyl)pyrrolidin-1-yl acetate], the “Efficacy in rat model of erectile dysfunction” value [1] was “Effective”, the “Efficacy in rat model of contrast-induced nephropathy” value [2] was “Effective” and the Density (Density of R-107) was 1.12. For the same compound, the “Efficacy in porcine model of acute retinal ischemia-reperfusion injury” value [3] was “Effective”, the R-100 in plasma ([4]; IM neat R-107 25 mg/kg, 48 hrs post dose) was “not detected” and the R-107 in plasma ([4]; IV neat R-107 25 mg/kg over 10 minutes, 2 hrs post dose) was “not detected”. For the same compound, the R-107 in plasma ([4]; IV neat R-107 25 mg/kg over 10 minutes, 4 hrs post dose) was “not detected”, the R-107 in plasma ([4]; IV neat R-107 25 mg/kg over 10 minutes, 6 hrs post dose) was “not detected” and the R-107 in plasma ([4]; IV neat R-107 25 mg/kg over 10 minutes, 8 hrs post dose) was “not detected”. For the same compound, the R-107 in plasma ([4]; IV neat R-107 25 mg/kg over 10 minutes, 24 hrs post dose) was “not detected”, the concentration at 0 h ([4]; plasma, IV neat R-107 25 mg/kg over 10 minutes, 0 hrs post dose) was 0 ng/mL and the concentration at 0.1 h ([4]; plasma, IV neat R-107 25 mg/kg over 10 minutes, 0.1 hrs post dose) was 5500 ng/mL. For the same compound, the concentration at 0.4 h ([4]; plasma, IV neat R-107 25 mg/kg over 10 minutes, 0.4 hrs post dose) was 1210 ng/mL, the concentration at 0.5 h ([4]; plasma, IV neat R-107 25 mg/kg over 10 minutes, 0.5 hrs post dose) was 200 ng/mL and the concentration at 1 h ([4]; plasma, IV neat R-107 25 mg/kg over 10 minutes, 1 hrs post dose) was 0 ng/mL. The “Relative concentration of R-107” value ([5]; 0.1 hrs) was 326, the “Relative concentration of R-107” value ([5]; 1.5 hrs) was 284 and the “Relative concentration of R-107” value ([5]; 20 hrs) was 0.
